What was measured:
[1] = tested on: intratumoral T cell populations; assay: Cell-surface marker assays of intratumoral T cell populations in the CT-26 model; format: in vivo, mouse (female Balb/c); details: Cmd 32 50 mg/kg, CT-26 tumors
Protocol: Animals were monitored until tumors were palpable and were then measured until tumor volume reached 100-200 mm^3. They were then randomized into groups using LabCat software and dosing started the following day. Blood was collected in EDTA tubes and kept on ice. Tumor were collected in 15 mL tubes with RPMI-1640 w/10% FBS on ice. Tumors proceeded to the Miltenyi Biotec mouse tumor dissociation kit. Tumor cells were counted on a MACSQuant Analyzer with propidium iodide (PI) for live/dead discrimination. Percent tumor growth inhibition on Day 20 is tabulated below (Table 11). Tumor volume of individual animals on day 20 and the tumor growth over the course of the study are represented in FIG. 1A and FIG. 1B respectively. Cell-surface marker assays were used to identify intratumoral T cell populations and calculate CD8+ (CTL; cytotoxic T-cell): Treg (regulatory T cell) ratio.

MC38 tumor = assay: Tumor growth inhibition in the MC38 syngenic model; format: in vivo, mouse (female C57BL/6); details: MC38 SC model, oral once a day
Protocol: Female C57BL/6 mice bred in-house were used in this efficacy study in the MC38 model. Animals were 6-8 weeks-old and weighed between 13 and 21 g. Animals were marked individually with tail marks and kept in cages that were identified by a cage card showing the study code, date of experimentation, sex and number of animals. During the experiment, the animals were weighed daily.
Tumor cells were cultured according to the procedure explained in the literature (U.S. Pat. No. 9,333,256; A. Filatenkov et al., J. Immunol., 2009. 183(11): 7196-7203). Tumor cells were ensured Mycoplasma free by performing Mycoplasma detection with MYCOALERT®Mycoplasma Detection Kit (Lonza) in accordance with manufacturer instructions. MYCOALERT® Assay is a selective biochemical test that exploits the activity of mycoplasmal enzymes. Viable Mycoplasma would be lysed and enzymes react with MYCOALERT® substrate, catalyzing the conversion of ADP to ATP. […]
MC38 cells were cultured according to the information in published literature (A. Filatenkov et al., J. Immunol., 2009. 183(11): 7196-7203; S. F. Ngiow et al., Cancer Res., 2011. 71(10): 3540-3551). […] Tumor volumes were measured 3 times a week, body weight and clinical signs were monitored every day. […]

CT-26 tumor = assay: Tumor growth inhibition in the CT-26 syngeneic mouse tumor model; format: in vivo, mouse (female Balb/c); details: CT-26 tumor bearing Balb/c mice, vs Vehicle (H2O)
Description: The purpose of this study is to determine the effect of Cmd 1 and Cmd 32 on growth inhibition (efficacy) in CT-26 tumor bearing mice when administered once daily by oral gavage as single agents or in combination. Cmd 1 and Cmd 32 are small molecule immune modulating agents for treatment of cancer.
Female Balb/c Mice from Charles River Laboratories −20-25 grams; 9-10 weeks old; Strain code: 028.
CT-26 cells were expanded in T225 tissue culture treated flasks in RPMI-1640 medium supplemented with 10% FBS ([…]) and cultured at 37° C. (5% CO2) in a humidified cell culture incubator. Cells were passaged every 3-4 days by detachment with 1× Trypsin/EDTA. Cells were re-plated on 5 flasks in complete RPMI1640 medium.
On the day of implantation, the cells were collected from flasks washed with phosphate buffer solution and detached with Trypsin/EDTA and washed once in phosphate buffer solution with no additives. Cells were resuspended in serum free DMEM at a final concentration of 1×10^6 cells/mL and kept on ice until administered to mice. The cells were kept on ice for no more than 1 hour before administration to the mice. […]
Animals were monitored until tumors were palpable and were then measured until tumor volume reached 100-200 mm^3. […] Tumor cells were counted on a MACSQuant Analyzer with propidium iodide (PI) for live/dead discrimination. […]

[2] = Mortality, body weight and clinical signs in the MC38 study; format: in vivo; details: Cmd 32 10 mg/kg group, one animal, no gross pathology, not reliably attributed to treatment
Protocol: Mortality/morbidity of animals, body weight loss and clinical symptoms were monitored. During study period all moribund animals were sacrificed and animals losing >20% of their body weight were also sacrificed. Body weights were recorded every day and clinical signs of toxicity were recorded once a day. Survival was recorded every day. A 15-20% loss of the body weight and/or animal death was considered as the criteria for toxicity. Behavioural, nesting and gross observations for clinical signs were made at least once every day during the course of the study.
At the end of the study (30 min after the last dose), animals were examined externally for possible abnormalities, weighed and sacrificed by CO2 asphyxiation.

| SMILES | Tumor granzyme-B+/PD-1+/Tim-3+ T cells (percent of CD8) ([1]; FIG. 2B) | Tumor granzyme-B+/PD-1+/Tim-3- T cells (percent of CD8) ([1]; FIG. 2C) | Percent tumor growth inhibition (TGI) (MC38 tumor; Cmd 32 10 mg/kg, Cmd 1 0 mg/kg) [%] | % TGI (Day 20), percent tumor growth inhibition (CT-26 tumor; Cmd 32 50 mg/kg QD PO) [%] | Mortality [2] | Percent tumor growth inhibition (TGI) (MC38 tumor; Cmd 1 10 mg/kg, Cmd 32 0 mg/kg) [%] | % TGI (Day 20), percent tumor growth inhibition (CT-26 tumor; Cmd 1 100 mg/kg QD PO) [%] |
| --- | --- | --- | --- | --- | --- | --- | --- |
| CC(O)[C@H](NC(=O)N[C@@H](CCC(=O)O)c1nc([C@@H](N)CO)no1)C(=O)O (stereo in doubt) [Cmd 32] | increase | concomitant decrease | 10 | 24 | found dead |  |  |
| CC(O)[C@H](NC(=O)N[C@@H](CC(N)=O)c1nc([C@@H](N)CO)no1)C(=O)O (stereo in doubt) [Cmd 1] |  |  |  |  |  | 25 | 23 |

From US12064418B2, “Conjoint therapies for immunomodulation” (Aurigene Oncology Limited, priority 2017, dated 2024)
